Tested on: plants
Assay: Test D pre-emergence, other plants of Tables D1 and D3
Assay type: in vivo
Settings: preemergent, 20 DAA
Protocol: A formulation containing 50 g/L of the test chemical was prepared by dissolving the active ingredient in a mixture of organic solvents and emulsifier, details of which are provided in the table. This formulation was then mixed with a small, variable amount of acetone to aid dissolution, before addition of a 0.2% v/v aqueous solution of an adjuvant, as the aqueous diluent, to form an aqueous spray solution which contains a predetermined concentration of the active ingredient.
This aqueous spray solution was then sprayed onto plants including maize and wheat that had been seed treated with a herbicide safener, after one day's cultivation (for pre-emergence) or after about 12 days' cultivation (for post-emergence). The plants were grown from seeds sown in standard soil, placed in a glasshouse under controlled conditions (at 24/18° C. or 20/16° C., day/night; 16 h light; 65% humidity). After spray application the plants were then grown in a glasshouse under the same conditions and watered twice daily. After 15 d for post-emergence and 20 DAA for pre-emergence the test was evaluated (100=total damage to plant; 0=no damage to plant).

Compound: CCn1nc([C@H]2CN(C)C(=O)[C@@H]2C(=O)Nc2cccc(F)c2F)c2cc(F)ccc21 [Compound 8]
- damage to plant (100=total damage to plant; 0=no damage to plant), ABUTH (rate 15): 0
- damage to plant (100=total damage to plant; 0=no damage to plant), ABUTH (rate 30): 0
- damage to plant (100=total damage to plant; 0=no damage to plant), ABUTH (rate 60): 0
- damage to plant (100=total damage to plant; 0=no damage to plant), ABUTH (rate 130): 0
- damage to plant (100=total damage to plant; 0=no damage to plant), ABUTH (rate 250): 0
- damage to plant (100=total damage to plant; 0=no damage to plant), ABUTH (rate 500): 0
- damage to plant (100=total damage to plant; 0=no damage to plant), AMARE (rate 15): 0
- damage to plant (100=total damage to plant; 0=no damage to plant), AMARE (rate 30): 0
- damage to plant (100=total damage to plant; 0=no damage to plant), AMARE (rate 60): 0
- damage to plant (100=total damage to plant; 0=no damage to plant), AMARE (rate 130): 0
- damage to plant (100=total damage to plant; 0=no damage to plant), AMARE (rate 250): 0
- damage to plant (100=total damage to plant; 0=no damage to plant), AMARE (rate 500): 0
- damage to plant (100=total damage to plant; 0=no damage to plant), BIDPI (rate 15): 0
- damage to plant (100=total damage to plant; 0=no damage to plant), BIDPI (rate 30): 0
- damage to plant (100=total damage to plant; 0=no damage to plant), BIDPI (rate 60): 0
- damage to plant (100=total damage to plant; 0=no damage to plant), BIDPI (rate 130): 0
- damage to plant (100=total damage to plant; 0=no damage to plant), BIDPI (rate 250): 0
- damage to plant (100=total damage to plant; 0=no damage to plant), BIDPI (rate 500): 0
- damage to plant (100=total damage to plant; 0=no damage to plant), BRAPL (rate 15): 20
- damage to plant (100=total damage to plant; 0=no damage to plant), BRAPL (rate 30): 70
- damage to plant (100=total damage to plant; 0=no damage to plant), BRAPL (rate 60): 70
- damage to plant (100=total damage to plant; 0=no damage to plant), BRAPL (rate 130): 80
- damage to plant (100=total damage to plant; 0=no damage to plant), BRAPL (rate 250): 90
- damage to plant (100=total damage to plant; 0=no damage to plant), BRAPL (rate 500): 100
- damage to plant (100=total damage to plant; 0=no damage to plant), CYPES (rate 15): 0
- damage to plant (100=total damage to plant; 0=no damage to plant), CYPES (rate 30): 0
- damage to plant (100=total damage to plant; 0=no damage to plant), CYPES (rate 60): 0
- damage to plant (100=total damage to plant; 0=no damage to plant), CYPES (rate 130): 0
- damage to plant (100=total damage to plant; 0=no damage to plant), CYPES (rate 250): 0
- damage to plant (100=total damage to plant; 0=no damage to plant), CYPES (rate 500): 0
- damage to plant (100=total damage to plant; 0=no damage to plant), DIGSA (rate 15): 10
- damage to plant (100=total damage to plant; 0=no damage to plant), DIGSA (rate 30): 90
- damage to plant (100=total damage to plant; 0=no damage to plant), DIGSA (rate 60): 100
- damage to plant (100=total damage to plant; 0=no damage to plant), DIGSA (rate 130): 100
- damage to plant (100=total damage to plant; 0=no damage to plant), DIGSA (rate 250): 100
- damage to plant (100=total damage to plant; 0=no damage to plant), DIGSA (rate 500): 100
- damage to plant (100=total damage to plant; 0=no damage to plant), ECHCG (rate 15): 30
- damage to plant (100=total damage to plant; 0=no damage to plant), ECHCG (rate 30): 90
- damage to plant (100=total damage to plant; 0=no damage to plant), ECHCG (rate 60): 90
- damage to plant (100=total damage to plant; 0=no damage to plant), ECHCG (rate 130): 90
- damage to plant (100=total damage to plant; 0=no damage to plant), ECHCG (rate 250): 90
- damage to plant (100=total damage to plant; 0=no damage to plant), ECHCG (rate 500): 100
- damage to plant (100=total damage to plant; 0=no damage to plant), ELEIN (rate 15): 0
- damage to plant (100=total damage to plant; 0=no damage to plant), ELEIN (rate 30): 0
- damage to plant (100=total damage to plant; 0=no damage to plant), ELEIN (rate 60): 0
- damage to plant (100=total damage to plant; 0=no damage to plant), ELEIN (rate 130): 0
- damage to plant (100=total damage to plant; 0=no damage to plant), ELEIN (rate 250): 0
- damage to plant (100=total damage to plant; 0=no damage to plant), ELEIN (rate 500): 0
- damage to plant (100=total damage to plant; 0=no damage to plant), EPHHL (rate 15): 0
- damage to plant (100=total damage to plant; 0=no damage to plant), EPHHL (rate 30): 0
- damage to plant (100=total damage to plant; 0=no damage to plant), EPHHL (rate 60): 0
- damage to plant (100=total damage to plant; 0=no damage to plant), EPHHL (rate 130): 0
- damage to plant (100=total damage to plant; 0=no damage to plant), EPHHL (rate 250): 0
- damage to plant (100=total damage to plant; 0=no damage to plant), EPHHL (rate 500): 70
- damage to plant (100=total damage to plant; 0=no damage to plant), GLXMA (rate 15): 0
- damage to plant (100=total damage to plant; 0=no damage to plant), GLXMA (rate 30): 0
- damage to plant (100=total damage to plant; 0=no damage to plant), GLXMA (rate 60): 0
- damage to plant (100=total damage to plant; 0=no damage to plant), GLXMA (rate 130): 0
- damage to plant (100=total damage to plant; 0=no damage to plant), GLXMA (rate 250): 0
- damage to plant (100=total damage to plant; 0=no damage to plant), GLXMA (rate 500): 0
- damage to plant (100=total damage to plant; 0=no damage to plant), IPOHE (rate 15): 0
- damage to plant (100=total damage to plant; 0=no damage to plant), IPOHE (rate 30): 0
- damage to plant (100=total damage to plant; 0=no damage to plant), IPOHE (rate 60): 0
- damage to plant (100=total damage to plant; 0=no damage to plant), IPOHE (rate 130): 0
- damage to plant (100=total damage to plant; 0=no damage to plant), IPOHE (rate 250): 0
- damage to plant (100=total damage to plant; 0=no damage to plant), IPOHE (rate 500): 0
- damage to plant (100=total damage to plant; 0=no damage to plant), ORYSA (rate 15): 0
- damage to plant (100=total damage to plant; 0=no damage to plant), ORYSA (rate 30): 0
- damage to plant (100=total damage to plant; 0=no damage to plant), ORYSA (rate 60): 0
- damage to plant (100=total damage to plant; 0=no damage to plant), ORYSA (rate 130): 0
- damage to plant (100=total damage to plant; 0=no damage to plant), ORYSA (rate 250): 0
- damage to plant (100=total damage to plant; 0=no damage to plant), ORYSA (rate 500): 0
- damage to plant (100=total damage to plant; 0=no damage to plant), PANMI (rate 15): 0
- damage to plant (100=total damage to plant; 0=no damage to plant), PANMI (rate 30): 0
- damage to plant (100=total damage to plant; 0=no damage to plant), PANMI (rate 60): 0
- damage to plant (100=total damage to plant; 0=no damage to plant), PANMI (rate 130): 0
- damage to plant (100=total damage to plant; 0=no damage to plant), PANMI (rate 250): 0
- damage to plant (100=total damage to plant; 0=no damage to plant), PANMI (rate 500): 30
- damage to plant (100=total damage to plant; 0=no damage to plant), SETFA (rate 15): 10
- damage to plant (100=total damage to plant; 0=no damage to plant), SETFA (rate 30): 80
- damage to plant (100=total damage to plant; 0=no damage to plant), SETFA (rate 60): 70
- damage to plant (100=total damage to plant; 0=no damage to plant), SETFA (rate 130): 90
- damage to plant (100=total damage to plant; 0=no damage to plant), SETFA (rate 250): 100
- damage to plant (100=total damage to plant; 0=no damage to plant), SETFA (rate 500): 100
- damage to plant (100=total damage to plant; 0=no damage to plant), SIDSP (rate 15): 0
- damage to plant (100=total damage to plant; 0=no damage to plant), SIDSP (rate 30): 0
- damage to plant (100=total damage to plant; 0=no damage to plant), SIDSP (rate 60): 0
- damage to plant (100=total damage to plant; 0=no damage to plant), SIDSP (rate 130): 0
- damage to plant (100=total damage to plant; 0=no damage to plant), SIDSP (rate 250): 0
- damage to plant (100=total damage to plant; 0=no damage to plant), SIDSP (rate 500): 0
- damage to plant (100=total damage to plant; 0=no damage to plant), SORVU (rate 15): 0
- damage to plant (100=total damage to plant; 0=no damage to plant), SORVU (rate 130): 10

— patent publication US20220281848A1, “PYRAZOLE-SUBSTITUTED PYRROLIDINONES AS HERBICIDES” (FMC Corporation, priority 2019, published 2022)
